In one test the test system is MCF-7 cells. Description: Western blot of cell cycle and apoptosis related proteins, MCF-7. It is filed as cell-based. Conditions: for MDM-2 expression (Western blot) / expression of apoptosis related proteins (Bcl-2 family, caspase-3 activation) (Western blot) / p21Waf1/Cip1 expression (Western blot) / p27Kip1 expression (Western blot) / p53 expression (Western blot): IC50 for 6, 12, 24 h vs untreated control; for retinoblastoma protein (Rb) expression, phosphorylated and dephosphorylated forms (Western blot): vs untreated control. Here is the method:
The cells were seeded in a density 1.6×10^4 cells/cm^2 (LNCaP), 1.4×10^4 cells/cm^2 (DU-145, MDA-MB-468 and MCF-7) using culture medium in 100-mm culture Petri dishes. After reaching of 70-80% confluence, the cells were treated with tested compounds 9 in concentration IC50 that were evaluated by MTT analysis described above. DMSO was used as a vehicle for controls. After 6, 12 and 24 h treatment, the cells were washed with cold PBS and scraped in ice-cold protein extract ion buffer (50 mM HEPES, pH 7.5; 150 mM NaCl; 1 mM EDTA; 2.5 mM EGTA; 10% glycerol; 0.1% Tween 20) with protease and phosphatase inhibitors (25 μL/mL phenylmethanesulphonyl fluoride; 2.5 μL/mL leupeptin; 0.1 mM Na3VO4; 2.5 μL/mL aprotinin; 10 mM β-glycerol-phosphate; 1 mM dithiothreitol). The lysates were collected into microfuge tube and incubated on ice for 1 h. Cells were incubated 60 min at 4° C. under time by time shaking in protein extraction buffer. After centrifugation at 45 000×g for 30 min at 4° C., supernatant was collected, aliquoted, and stored at −80° C. The protein content in the lysates was measured by a Bredford assay (Bio-Rad Laboratories, Hercules, Calif., USA) according to the manufacture's protocol.
For Western blot analysis, equal aliquots of proteins (15-30 μg/well) were loaded on 10% or 12% SDS-PAGE gels and transferred onto nitrocellulose membranes (Amersham Biosciences, Vienna, Austria) by semi-dry electrophoretic transfer. Coloured marker (Rainbow™, Amersham Biosciences, Vienna, Austria) was used as a protein molecular weight standard. The non-specific binding sites were blocked by incubating the blot with 5% (w/v) non-fat dry milk in PBS for 2 h. The blot was incubated overnight in 4° C. with appropriate primary antibody that detects the protein epitope of interest and finally washed in PBS with 0.1% Tween 20 for 1 h. The blot was incubated with the diluted secondary goat anti-mouse IgG-horseradish peroxidase conjugated antibody (dilution 1:6000, Santa Cruz Biotechnology, Santa Cruz, Calif., USA) or goat anti-rabbit IgG-horseradish peroxidase conjugated antibody (dilution 1:2000, DakoCytomation, Glostrup, Denmark) for 45 min in 4° C. The membrane was washed in PBS with 0.1% Tween 20 for 1 h. The proteins were detected using a chemiluminescence detection system (Amersham Biosciences, Vienna, Austria) according to the protocol provided by the manufacturer. Equality of loaded proteins was confirmed by Ponceau S membrane staining (Sigma, St. Louis, Mo., USA) and by detection of anti-tubulin-α or anti-mcm-7 antibodies. The experiments were repeated three times. The protein expressions in treated cells were compared to untreated controls.
Western blot analysis was used to detect changes in apoptosis related protein expression in breast and prostate cancer cell lines. […] This decreased expression of Bid can indicate a cleavage of the protein after treatment by BRs. In DU-145 cell line, expression of pro-apoptotic proteins Bax and Bid was unchanged. […] On the other hand, caspase cleavage was not found in DU-145 cells. Poly-(ADP-ribose) polymerase (PARP) positive expression in controls of prostate cancer cell lines was observed but brassinosteroids had no effect on its expression nor on its degradation within the period 6/12/24 h (FIG. 6B).

Another test deals with LNCaP cells. Nature of the test: Cell cycle distribution by flow cytometry, LNCaP. Conditions: IC50, 24 h; for Apoptosis subG1 fraction: control 8%; for Cell cycle distribution S: control 14%; for Cell cycle distribution G2/M: control 16%; for Cell cycle distribution G1: control 70%. It is filed as cell-based. The source says:
In the MCF-7 breast cancer cell line that has been the most widely studied experimental cell system, the typical growth inhibitory response to antiestrogens is decrease in the proportion of cells synthesising DNA (S phase) after antiestrogen treatment. This decrease in S phase coincides with an increase in the proportion of cells in G0/G1 phase. The activity of the androgen receptor (AR) is also regulated by alterations in cell signaling. There has been reported ligand independent activation of AR in prostate cancer cells by different growth factors. As the AR can be activated in the absence of hormone, it appears that the conditions may be more restricted than those observed for ER. Use of physiologic doses of ligand (dihydrotestosterone, DHT) is of importance as the LNCaP cells proliferate only at DHT concentration of 10^−9 M or lower. […] In contrast to proliferation, transactivation of AR specific target genes (e.g. PSA) continues to increase with DHT doses of 10^−10 M and higher. It might be accepted for estrogen or androgen receptors as stronger cytotoxic activities of brassinosteroids 9 or 6 on hormone-sensitive (MCF-7, LNCaP) compared to hormone-insensitive (MDA-MB-468, DU-145) cell lines were found. Therefore we explored the possibility of cell cycle perturbation by BRs in different cancer cell lines. Flow cytometry was used to evaluate the number of cells in the particular phases of the cell cycle, including subG1 peak detection. Control and treated cells were washed twice with cold PBS and centrifuged at 360×g for 10 min at 4° C., and fixed with chilled ethanol (70%; v/v) by low-speeded vortexing. For detection of DNA content analysis, propidium iodide staining was used. The cells were analyzed using a FACSCalibur flow cytometer (BD Biosciences, San Jose, Calif.).
Flow-cytometric detection of apoptosis. Several studies have declared that the induction of apoptosis may be cell cycle-dependent. Therefore, in our next series of experiments, we tested if brassinosteroids 9 or 6 cause apoptosis of the breast and prostate cancer cells via cell cycle blockage. From this reason we carried out DNA cell cycle analysis by flow cytometry based on detection of endonucleolytic DNA degradation that results in extraction of low molecular weight DNA from the cells. […] The subG1 peak containing apoptotic bodies was however not observed in MCF-7 cells.

In the case of `CC(C)[C@@H](C)[C@@H](O)[C@H](O)[C@@H](C)[C@H]1CC[C@H]2[C@@H]3COC(=O)[C@H]4C[C@H](O)[C@H](O)C[C@]4(C)[C@H]3CC[C@]12C` [Brassinosteroid 6, 24-Epibrassinolide], the “cyclin D1 expression (Western blot)” value in the test on MCF-7 cells (6/12/24 h vs untreated control) is on record as “decreased expression of cyclin D1”. For the same molecule, in the test with MCF-7 cells, the “MDM-2 expression (Western blot)” value is “decreased expression of MDM-2 regulator of p53 degradation after all time points”; the “expression of apoptosis related proteins (Bcl-2 family, caspase-3 activation) (Western blot)” value is “no significant changes in expression of Bcl-2 family protein nor caspase-3 activation”; the “p21Waf1/Cip1 expression (Western blot)” value is on record as “unchanged”; the “p27Kip1 expression (Western blot)” value was “decrease after 6 and 12 h”. Also, in the test on MCF-7 cells, the “p53 expression (Western blot)” value is on record as “after 6 h exposition to brassinosteroids 9 or 6 a slight increase”; the “retinoblastoma protein (Rb) expression, phosphorylated and dephosphorylated forms (Western blot)” value is “decreased”. Besides, in the test with LNCaP cells, the “Apoptosis subG1 fraction” value was 47%, the “Cell cycle distribution S” value was determined as 5%, the “Cell cycle distribution G2/M” value was determined as 9% and the “Cell cycle distribution G1” value came to 86%.

Regarding `CC[C@@H](C(C)C)[C@@H](O)[C@H](O)[C@@H](C)[C@H]1CC[C@H]2[C@@H]3CC(=O)[C@H]4C[C@H](O)[C@H](O)C[C@]4(C)[C@H]3CC[C@]12C` [Brassinosteroid 9, 28-Homocastasterone], in the test with MCF-7 cells, the “MDM-2 expression (Western blot)” value is on record as “decreased expression of MDM-2 regulator of p53 degradation after all time points”; the “expression of apoptosis related proteins (Bcl-2 family, caspase-3 activation) (Western blot)” value was “no significant changes in expression of Bcl-2 family protein nor caspase-3 activation”; the “p21Waf1/Cip1 expression (Western blot)” value is “increase in p21^Waf1/Cip1 and p27^Kip1 expression after 6 h”; the “p27Kip1 expression (Western blot)” value was “increase in p21^Waf1/Cip1 and p27^Kip1 expression after 6 h”. In the test with MCF-7 cells, the “p53 expression (Western blot)” value was “after 6 h exposition to brassinosteroids 9 or 6 a slight increase”; the “retinoblastoma protein (Rb) expression, phosphorylated and dephosphorylated forms (Western blot)” value is listed as “decreased”. For the same molecule, in the test with LNCaP cells, the “Apoptosis subG1 fraction” value came to 18%, the “Cell cycle distribution S” value was 2%, the “Cell cycle distribution G2/M” value turned out to be 4% and the “Cell cycle distribution G1” value is 94%.

Values taken from patent US20100204460A1, “NATURAL BRASSINOSTEROIDS FOR USE FOR TREATING HYPERPROLIFERATION, TREATING PROLIFERATIVE DISEASES AND REDUCING ADVERSE EFFECTS OF STEROID DYSFUNCTION IN MAMMALS, PHARMACEUTICAL COMPOSITION AND ITS USE” (priority 2007, published 2010).
